Columns and labels:
Assay type in all cases: binding
CYP147G1 [1] = target: T1, CYP147G1 (Mycobacterium marinum, UniProt B2HE89); experiment: UV/Vis heme spin-state shift; conditions: purified ferric enzyme; also oxidised to indigo in E. coli with FdR1/Fdx3
T1 construct: produced in E. coli, purified by two ion exchange steps; ferric heme
T1 sequence (B2HE89 1-422): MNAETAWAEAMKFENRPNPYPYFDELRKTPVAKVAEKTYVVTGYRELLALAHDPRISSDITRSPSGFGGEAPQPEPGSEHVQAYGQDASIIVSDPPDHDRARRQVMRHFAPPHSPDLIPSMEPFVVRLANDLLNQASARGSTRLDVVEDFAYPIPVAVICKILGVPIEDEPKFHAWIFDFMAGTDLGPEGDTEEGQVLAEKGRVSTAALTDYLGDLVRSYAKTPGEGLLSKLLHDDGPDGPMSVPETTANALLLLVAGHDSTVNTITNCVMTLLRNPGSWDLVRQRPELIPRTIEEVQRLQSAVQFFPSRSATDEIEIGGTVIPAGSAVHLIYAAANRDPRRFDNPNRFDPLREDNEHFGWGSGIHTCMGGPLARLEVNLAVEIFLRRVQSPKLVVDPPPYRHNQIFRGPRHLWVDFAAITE

CYP269A1 = target: T2, CYP269A1 (Mycobacterium marinum, UniProt B2HPM5); experiment: UV/Vis heme Soret shift titration
T2 construct: produced in E. coli and purified; high-spin-like ferric heme (Soret 390 nm); gene near ferredoxin gene Mmar_3973 (Fdx4)
T2 sequence (B2HPM5 1-403): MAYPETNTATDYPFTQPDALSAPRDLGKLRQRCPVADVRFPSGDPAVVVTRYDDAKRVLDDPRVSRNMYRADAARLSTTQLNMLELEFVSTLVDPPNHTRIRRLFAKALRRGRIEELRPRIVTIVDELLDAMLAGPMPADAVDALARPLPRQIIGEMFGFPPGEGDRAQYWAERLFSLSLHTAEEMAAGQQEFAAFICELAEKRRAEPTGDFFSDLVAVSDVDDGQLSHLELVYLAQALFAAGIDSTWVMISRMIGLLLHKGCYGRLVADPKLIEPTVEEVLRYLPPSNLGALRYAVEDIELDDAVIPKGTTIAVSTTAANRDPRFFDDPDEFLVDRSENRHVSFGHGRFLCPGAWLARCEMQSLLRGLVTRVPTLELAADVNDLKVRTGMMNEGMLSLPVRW

CYP147G1 [2] = target: T1, CYP147G1; experiment: UV/Vis heme spin-state shift titration; conditions: read-out: dissociation constant
CYP150A5 = target: T3, CYP150A5 (Mycobacterium marinum, UniProt B2HG29); experiment: UV/Vis heme spin-state shift titration
T3 construct: produced in E. coli and purified; ferric heme; gene near ferredoxin gene Mmar_4736 (Fdx8)
T3 sequence (B2HG29 1-423): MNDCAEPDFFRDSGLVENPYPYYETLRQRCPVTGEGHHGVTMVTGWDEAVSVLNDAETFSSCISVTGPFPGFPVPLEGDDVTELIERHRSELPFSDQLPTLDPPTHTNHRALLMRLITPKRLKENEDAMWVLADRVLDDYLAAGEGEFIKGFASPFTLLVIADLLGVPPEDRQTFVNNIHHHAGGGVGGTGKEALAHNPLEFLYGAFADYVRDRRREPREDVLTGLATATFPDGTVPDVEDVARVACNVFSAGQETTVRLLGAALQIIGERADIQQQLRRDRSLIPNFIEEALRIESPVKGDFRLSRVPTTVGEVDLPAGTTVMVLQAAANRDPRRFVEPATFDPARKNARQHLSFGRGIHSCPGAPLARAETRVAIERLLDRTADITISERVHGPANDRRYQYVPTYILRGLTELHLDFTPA

CYP278A1 = target: T4, CYP278A1 (Mycobacterium marinum, UniProt B2HE37); experiment: UV/Vis heme spin-state shift titration
T4 construct: produced in E. coli and purified; ferric heme; gene near ferredoxin gene Mmar_2879 (Fdx2)
T4 sequence (B2HE37 1-427): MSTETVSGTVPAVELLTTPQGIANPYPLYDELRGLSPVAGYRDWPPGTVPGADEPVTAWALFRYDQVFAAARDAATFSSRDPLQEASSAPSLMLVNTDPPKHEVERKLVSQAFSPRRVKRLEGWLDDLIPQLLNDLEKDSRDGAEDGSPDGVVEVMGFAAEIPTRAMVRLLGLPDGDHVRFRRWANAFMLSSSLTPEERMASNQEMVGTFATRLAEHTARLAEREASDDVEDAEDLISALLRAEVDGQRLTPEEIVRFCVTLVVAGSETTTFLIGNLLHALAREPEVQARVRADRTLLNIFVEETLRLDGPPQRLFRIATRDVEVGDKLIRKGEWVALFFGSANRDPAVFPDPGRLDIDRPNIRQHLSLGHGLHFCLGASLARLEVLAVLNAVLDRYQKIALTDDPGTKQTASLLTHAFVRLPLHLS

## c1ccc2[nH]ccc2c1 [indole]
CYP147G1 [1]
  % high-spin: < 5%

## Clc1ccc(COC(Cn2ccnc2)c2ccc(Cl)cc2Cl)c(Cl)c1 (centres unmarked) [miconazole]
CYP269A1
  Kd: 0.05 ± 0.007 µM

## CCCCCCCCCCC(=O)O [undecanoic acid]
CYP147G1 [2]
  Kd: 25 ± 4 µM

## CC(=O)/C=C/C1=C(C)CCCC1(C)C [β-ionone]
CYP150A5
  Kd: 41 ± 3 µM
CYP278A1
  Kd: 5.1 ± 1.5 µM

Reference: article PMC6237146, “Electron transfer ferredoxins with unusual cluster binding motifs support secondary metabolism in many bacteria” (Chemical Science, 2018)
